For 2 compounds, IC50 results are on record in patent US20030087956A1, “Urea compounds as inhibitors for vla-4” (priority 2000, published 2003).

Molecules are shown by their SMILES.

The target of this experiment is T1, integrin α4β1 (Homo sapiens, UniProt P05556+P13612).
T1 construct: expressed on the MOLT-4 cell membrane; host or cells: MOLT-4 human T-lymphoblastic leukaemia cells
The experiment can be described thus: MOLT-4 cell/Fibronectin adhesion assay. The class given is cell-based. The settings on record: MOLT-4 cells on fibronectin-coated plates, 2 h at 37° C., acid phosphatase readout; read-out: inhibitor of MOLT-4 cell adhesion to fibronectin (concentration at which compound is an inhibitor). An excerpt: MOLT-4 cells—human T-lymphoblastic leukaemia cells (European Collection of Animal Cell Cultures, Porton Down)
Fibronectin—purified from human plasma by gelatin-sepharose affinity chromatography according to the methods described in E. Nengvall, E. Ruoslahti, Int. J. Cancer, 1977, 20, pages 1-5 and J. Forsyth et al, Methods in Enzymology, 1992, 215, pages 311-316).
1.1.1 MOLT-4 cell/Fibronectin adhesion assay.
The MOLT-4 cell/fibronectin adhesion assay was used to investigate the interaction of the integrin α4-β1expressed on the MOLT-4 cell membrane with fibronectin. Polystyrene 96 well plates were coated overnight at 4° C. with fibronectin, 100 μl of 10 μg/ml in PBS. Non-specific adhesion sites were blocked by adding 100 μl BSA, 20 mg/ml. After incubating for 1 h at room temperature, the solutions were aspirated. […] Adherent cells were quantified by a colorimetric acid phosphatase assay. […] After incubation for 1 h at 37° C., 50 μl sodium hydroxide (1M) was added to each well and the absorbance 405 nm was measured on a microplate spectrophotometer. Compounds which inhibited adhesion gave a lower absorbance reading. […] Percentage inhibition was calculated with respect to total (no inhibitor) and non-specific (no fibronectin) standards on each plate.

T1 sequence (P13612 34-1032): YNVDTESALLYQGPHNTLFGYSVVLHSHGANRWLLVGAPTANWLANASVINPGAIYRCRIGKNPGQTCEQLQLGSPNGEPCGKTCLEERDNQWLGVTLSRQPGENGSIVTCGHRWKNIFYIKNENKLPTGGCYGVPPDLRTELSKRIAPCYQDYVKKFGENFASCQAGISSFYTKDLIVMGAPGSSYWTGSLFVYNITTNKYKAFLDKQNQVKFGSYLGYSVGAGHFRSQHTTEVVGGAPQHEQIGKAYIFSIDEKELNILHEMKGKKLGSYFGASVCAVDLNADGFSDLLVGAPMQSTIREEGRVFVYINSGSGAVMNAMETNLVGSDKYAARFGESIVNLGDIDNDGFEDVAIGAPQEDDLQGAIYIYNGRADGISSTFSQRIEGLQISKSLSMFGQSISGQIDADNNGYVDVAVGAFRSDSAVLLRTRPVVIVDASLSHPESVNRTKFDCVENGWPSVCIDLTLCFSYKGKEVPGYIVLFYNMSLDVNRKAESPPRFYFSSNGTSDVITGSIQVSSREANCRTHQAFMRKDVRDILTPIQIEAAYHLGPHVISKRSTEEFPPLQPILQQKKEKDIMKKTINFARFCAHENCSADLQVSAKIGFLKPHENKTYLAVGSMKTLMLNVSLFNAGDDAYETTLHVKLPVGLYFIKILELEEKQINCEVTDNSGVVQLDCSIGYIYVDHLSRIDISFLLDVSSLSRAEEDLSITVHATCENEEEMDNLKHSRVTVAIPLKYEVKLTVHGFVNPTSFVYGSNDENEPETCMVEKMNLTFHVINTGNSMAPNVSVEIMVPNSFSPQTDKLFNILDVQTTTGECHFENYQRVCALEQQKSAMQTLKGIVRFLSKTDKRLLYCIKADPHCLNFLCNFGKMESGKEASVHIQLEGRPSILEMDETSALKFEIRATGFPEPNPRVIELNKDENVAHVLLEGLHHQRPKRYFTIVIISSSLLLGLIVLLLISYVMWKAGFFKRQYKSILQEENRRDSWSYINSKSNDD
T1 sequence (P05556 21-798): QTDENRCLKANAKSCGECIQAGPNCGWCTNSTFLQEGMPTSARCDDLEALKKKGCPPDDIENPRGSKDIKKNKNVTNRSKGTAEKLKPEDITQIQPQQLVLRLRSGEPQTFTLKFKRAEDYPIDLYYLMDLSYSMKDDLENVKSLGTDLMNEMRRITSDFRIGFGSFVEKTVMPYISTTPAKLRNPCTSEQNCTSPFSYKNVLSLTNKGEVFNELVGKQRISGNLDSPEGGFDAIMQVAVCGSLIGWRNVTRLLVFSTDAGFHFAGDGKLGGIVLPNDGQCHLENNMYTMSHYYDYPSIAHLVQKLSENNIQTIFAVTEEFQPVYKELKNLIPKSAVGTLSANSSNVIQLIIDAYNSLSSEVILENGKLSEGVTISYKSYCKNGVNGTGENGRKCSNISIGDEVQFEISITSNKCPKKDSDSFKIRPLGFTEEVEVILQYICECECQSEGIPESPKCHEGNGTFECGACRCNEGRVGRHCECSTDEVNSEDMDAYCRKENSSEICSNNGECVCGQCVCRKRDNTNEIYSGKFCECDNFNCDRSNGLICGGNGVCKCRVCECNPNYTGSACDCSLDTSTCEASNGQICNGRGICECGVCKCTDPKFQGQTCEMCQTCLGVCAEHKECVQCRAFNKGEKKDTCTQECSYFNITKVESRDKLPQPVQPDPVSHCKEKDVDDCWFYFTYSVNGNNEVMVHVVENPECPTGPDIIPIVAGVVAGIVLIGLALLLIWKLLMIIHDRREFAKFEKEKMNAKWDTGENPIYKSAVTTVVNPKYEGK

`Cc1ccccc1NC(=O)Nc1ccc(CC(=O)Nc2ccc(OCCN3CCCCC3)c(OCCCC(=O)O)c2)cc1` [Compound 1]: the IC50 stood at 0.087 µM.

Consider `Cc1ccccc1NC(=O)Nc1ccc(CC(=O)Nc2ccc(OCCCN3CCCC3)c(OCCCC(=O)O)c2)cc1` [Compound 2], for which the IC50 came to 0.084 µM.
